In ChEMBL document CHEMBL6071156 (Eur J Med Chem, 2024):
The source made the active and inactive calls. The calls are words filed in the database; no cut-off is given here.

Legend:
Chikungunya virus [1] = experiment: Antiviral activity against CHIKV S27 in green monkey Vero 76 cells assessed as reduction in virus-induced cytopathic effect; assay type: functional, organism-based; conditions: S27, Vero 76
[2] = Half life in C57BL/6 mouse plasma at 2.5 mg/kg, iv measured upto 24 hrs post dosing by LC-MS/MS; assay type: ADME, organism-based; conditions: in vivo
[3] = Volume of distribution at steady state in C57BL/6 mouse plasma at 2.5 mg/kg, iv measured upto 24 hrs post dosing by LC-MS/MS; assay type: ADME, organism-based; conditions: in vivo
[4] = MRT in C57BL/6 mouse plasma at 2.5 mg/kg, iv measured upto 24 hrs post dosing by LC-MS/MS; assay type: ADME, organism-based; conditions: in vivo
[5] = Half life in C57BL/6 mouse plasma at 10 mg/kg, po measured […] post dosing by LC-MS/MS; assay type: ADME, organism-based; conditions: in vivo
[6] = Toxicity in Sham-infected C57BL/6 mouse model assessed as footpad swelling at 300 mg/kg/day, ip measured after 6 days post infection (reference value: -4.6+/-5.5); assay type: organism-based; conditions: in vivo, 144 h, time 6 day
Chikungunya virus [7] = experiment: Antiviral activity against CHIKV infected in C57BL/6 mouse assessed as mouse survival at 300 mg/kg/day, ip measured after 6 days post infection; assay type: functional, organism-based; conditions: time 6.0 day
Chikungunya virus [8] = experiment: Antiviral activity against CHIKV infected in C57BL/6 mouse assessed as mouse survival at 100 mg/kg/day, ip measured after 6 days post infection; assay type: functional, organism-based; conditions: time 6.0 day
Chikungunya virus [9] = experiment: Antiviral activity against CHIKV infected in C57BL/6 mouse assessed as footpad swelling at 100 mg/kg/day, ip measured after 6 days post infection (reference value: 40.9+/-12.4); assay type: functional; conditions: time 6 day
Chikungunya virus [10] = experiment: Antiviral activity against CHIKV infected in C57BL/6 mouse assessed as virus titers at 300 mg/kg/day, ip measured after 6 days post infection (reference value: 5.3+/0.3); assay type: functional; conditions: time 6 day
Chikungunya virus [11] = experiment: Antiviral activity against CHIKV infected in C57BL/6 mouse assessed as virus titers at 100 mg/kg/day, ip measured after 6 days post infection (reference value: 5.3+/0.3); assay type: functional; conditions: time 6 day
[12] = Toxicity in C57BL/6 mouse model assessed as effect on ALT level at 300 mg/kg/day, ip measured after 6 days post infection (reference value: 29 to 33); assay type: organism-based; conditions: in vivo, 144 h, time 6 day
[13] = Toxicity in C57BL/6 mouse model assessed as effect on AST level at 300 mg/kg/day, ip measured after 6 days post infection (reference value: 64 to 100); assay type: organism-based; conditions: in vivo, 144 h, time 6 day
[14] = Toxicity in C57BL/6 mouse model assessed as effect on DBILI level at 300 mg/kg/day, ip measured after 6 days post infection (reference value: 0.25 to 0.33); assay type: organism-based; conditions: in vivo, 144 h, time 6 day
[15] = molecular target: Polyprotein P1234 (Chikungunya virus (strain S27-African prototype) (CHIKV)) (UniProt Q8JUX6); conditions: dose 0.27-600 µM, time 2000-8000 sec
[16] = molecular target: Polyprotein P1234 (Chikungunya virus (strain S27-African prototype) (CHIKV)) (UniProt Q8JUX6); conditions: dose 0.27-600 µM
Chikungunya virus [17] = assay type: functional, organism-based; conditions: dose 300.0 mg/kg/day, time 5-6 day
[18] = Metabolic stability in human liver microsomes assessed as intrinsic clearance by HPLC-MS/MS analysis; assay type: ADME, Microsome
[19] = Metabolic stability in CD-1 mouse liver microsomes assessed as half life by HPLC-MS/MS analysis; assay type: ADME, Microsome
[20] = Metabolic stability in human liver S9 fraction assessed as intrinsic clearance by HPLC-MS/MS analysis; assay type: ADME, subcellular
Chikungunya virus [21] = experiment: Antiviral activity against CHIKV S27 in green monkey Vero 76 cells assessed as reduction in virus yield measured after 3 days by Virus yield reduction assay; assay type: functional; conditions: S27, Vero 76, 72 h, time 3 day
CYP1A = molecular target: T1, CYP1A (Homo sapiens, UniProt P04798+P05177); experiment: Inhibition of CYP1A (unknown origin); assay type: ADME, protein assay
T1 sequence (P04798 whole entry): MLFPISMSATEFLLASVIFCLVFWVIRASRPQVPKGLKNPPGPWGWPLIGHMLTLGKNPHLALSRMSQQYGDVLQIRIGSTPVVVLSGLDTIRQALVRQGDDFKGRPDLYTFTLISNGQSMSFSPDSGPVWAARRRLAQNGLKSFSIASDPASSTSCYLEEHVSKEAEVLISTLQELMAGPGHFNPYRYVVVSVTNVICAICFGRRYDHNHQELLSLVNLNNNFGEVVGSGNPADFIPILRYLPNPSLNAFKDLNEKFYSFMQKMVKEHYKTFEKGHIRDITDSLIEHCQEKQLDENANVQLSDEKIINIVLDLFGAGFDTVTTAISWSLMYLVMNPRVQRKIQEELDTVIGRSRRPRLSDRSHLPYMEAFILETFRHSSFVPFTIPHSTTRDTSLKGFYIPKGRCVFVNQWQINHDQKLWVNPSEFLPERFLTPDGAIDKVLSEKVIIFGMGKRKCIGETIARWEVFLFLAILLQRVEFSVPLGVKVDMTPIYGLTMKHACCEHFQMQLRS
T1 sequence (P05177 whole entry): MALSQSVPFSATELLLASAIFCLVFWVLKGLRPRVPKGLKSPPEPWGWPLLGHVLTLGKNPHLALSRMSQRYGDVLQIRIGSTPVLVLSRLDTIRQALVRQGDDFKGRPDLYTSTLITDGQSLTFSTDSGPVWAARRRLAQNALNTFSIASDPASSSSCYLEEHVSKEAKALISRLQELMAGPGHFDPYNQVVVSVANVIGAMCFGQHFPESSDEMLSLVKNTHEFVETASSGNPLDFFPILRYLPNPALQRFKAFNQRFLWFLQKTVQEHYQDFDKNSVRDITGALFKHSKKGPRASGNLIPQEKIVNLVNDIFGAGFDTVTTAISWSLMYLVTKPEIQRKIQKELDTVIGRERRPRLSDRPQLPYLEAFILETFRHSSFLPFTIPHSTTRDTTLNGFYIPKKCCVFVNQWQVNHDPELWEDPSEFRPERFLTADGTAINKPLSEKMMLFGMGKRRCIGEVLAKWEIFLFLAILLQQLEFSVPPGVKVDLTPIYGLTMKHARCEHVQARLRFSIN

Cytochrome P450 2C9 = Cytochrome P450 2C9 (Homo sapiens, UniProt P11712); experiment: Inhibition of CYP2C9 (unknown origin); assay type: ADME
Cytochrome P450 2C19 = Cytochrome P450 2C19 (Homo sapiens, UniProt P33261); experiment: Inhibition of CYP2C19 (unknown origin); assay type: ADME
Cytochrome P450 2D6 = Cytochrome P450 2D6 (Homo sapiens, UniProt P10635); experiment: Inhibition of CYP2D6 (unknown origin); assay type: ADME
Cytochrome P450 3A4 = Cytochrome P450 3A4 (Homo sapiens, UniProt P08684); experiment: Inhibition of CYP3A4 (unknown origin); assay type: ADME
Cytochrome P450 3A = Cytochrome P450 3A (Homo sapiens, UniProt P08684+P20815+Q9HB55+P24462); experiment: Inhibition of CYP3A in human liver microsomes using testosterone as substrate; assay type: ADME, Microsome
Kir2.1 = experiment: Antagonist activity at hKir2.1 expressed in HEK293 cells by Electrophysiology; assay type: toxicity, cell-based; conditions: human, HEK293 cells expressing hKir2.1
[22] = molecular target: Voltage-gated inwardly rectifying potassium channel KCNH2 (Homo sapiens, UniProt Q12809); experiment: Antagonist activity at recombinant hERG expressed in CHO-K1 cells by Electrophysiology; assay type: toxicity, cell-based
Chain of Voltage-gated inwardly rectifying potassium channel KCNH2 (Q12809 whole entry): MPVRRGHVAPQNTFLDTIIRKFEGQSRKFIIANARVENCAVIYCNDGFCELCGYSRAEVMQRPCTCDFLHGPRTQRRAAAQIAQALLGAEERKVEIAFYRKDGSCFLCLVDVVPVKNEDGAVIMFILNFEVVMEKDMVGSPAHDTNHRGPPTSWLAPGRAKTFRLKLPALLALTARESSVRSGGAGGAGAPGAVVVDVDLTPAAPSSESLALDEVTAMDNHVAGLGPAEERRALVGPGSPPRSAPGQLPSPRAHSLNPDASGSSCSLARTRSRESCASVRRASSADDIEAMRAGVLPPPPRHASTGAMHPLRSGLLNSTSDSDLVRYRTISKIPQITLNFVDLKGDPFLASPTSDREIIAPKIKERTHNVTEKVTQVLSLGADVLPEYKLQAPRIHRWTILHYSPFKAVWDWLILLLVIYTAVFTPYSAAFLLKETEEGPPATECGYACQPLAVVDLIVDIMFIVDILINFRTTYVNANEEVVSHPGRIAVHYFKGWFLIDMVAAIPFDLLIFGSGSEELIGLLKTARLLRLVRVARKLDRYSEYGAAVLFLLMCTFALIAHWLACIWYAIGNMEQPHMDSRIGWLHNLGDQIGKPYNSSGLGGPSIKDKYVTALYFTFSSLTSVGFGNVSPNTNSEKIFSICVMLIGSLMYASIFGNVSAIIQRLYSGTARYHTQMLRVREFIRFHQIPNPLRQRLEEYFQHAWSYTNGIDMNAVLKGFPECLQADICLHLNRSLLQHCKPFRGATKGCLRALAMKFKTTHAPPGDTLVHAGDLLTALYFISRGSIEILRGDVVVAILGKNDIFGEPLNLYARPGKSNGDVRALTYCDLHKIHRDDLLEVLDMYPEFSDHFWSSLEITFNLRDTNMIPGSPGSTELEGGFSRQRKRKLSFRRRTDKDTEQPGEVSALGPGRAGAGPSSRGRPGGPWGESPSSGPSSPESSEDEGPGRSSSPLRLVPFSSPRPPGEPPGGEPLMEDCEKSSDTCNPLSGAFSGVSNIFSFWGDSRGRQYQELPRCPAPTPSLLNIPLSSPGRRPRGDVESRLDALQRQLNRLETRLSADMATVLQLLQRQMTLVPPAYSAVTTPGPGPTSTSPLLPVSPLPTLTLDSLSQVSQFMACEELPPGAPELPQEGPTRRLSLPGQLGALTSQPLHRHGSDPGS

Chain of Polyprotein P1234 (Chikungunya virus (strain S27-African prototype) (CHIKV)) (Q8JUX6 whole entry): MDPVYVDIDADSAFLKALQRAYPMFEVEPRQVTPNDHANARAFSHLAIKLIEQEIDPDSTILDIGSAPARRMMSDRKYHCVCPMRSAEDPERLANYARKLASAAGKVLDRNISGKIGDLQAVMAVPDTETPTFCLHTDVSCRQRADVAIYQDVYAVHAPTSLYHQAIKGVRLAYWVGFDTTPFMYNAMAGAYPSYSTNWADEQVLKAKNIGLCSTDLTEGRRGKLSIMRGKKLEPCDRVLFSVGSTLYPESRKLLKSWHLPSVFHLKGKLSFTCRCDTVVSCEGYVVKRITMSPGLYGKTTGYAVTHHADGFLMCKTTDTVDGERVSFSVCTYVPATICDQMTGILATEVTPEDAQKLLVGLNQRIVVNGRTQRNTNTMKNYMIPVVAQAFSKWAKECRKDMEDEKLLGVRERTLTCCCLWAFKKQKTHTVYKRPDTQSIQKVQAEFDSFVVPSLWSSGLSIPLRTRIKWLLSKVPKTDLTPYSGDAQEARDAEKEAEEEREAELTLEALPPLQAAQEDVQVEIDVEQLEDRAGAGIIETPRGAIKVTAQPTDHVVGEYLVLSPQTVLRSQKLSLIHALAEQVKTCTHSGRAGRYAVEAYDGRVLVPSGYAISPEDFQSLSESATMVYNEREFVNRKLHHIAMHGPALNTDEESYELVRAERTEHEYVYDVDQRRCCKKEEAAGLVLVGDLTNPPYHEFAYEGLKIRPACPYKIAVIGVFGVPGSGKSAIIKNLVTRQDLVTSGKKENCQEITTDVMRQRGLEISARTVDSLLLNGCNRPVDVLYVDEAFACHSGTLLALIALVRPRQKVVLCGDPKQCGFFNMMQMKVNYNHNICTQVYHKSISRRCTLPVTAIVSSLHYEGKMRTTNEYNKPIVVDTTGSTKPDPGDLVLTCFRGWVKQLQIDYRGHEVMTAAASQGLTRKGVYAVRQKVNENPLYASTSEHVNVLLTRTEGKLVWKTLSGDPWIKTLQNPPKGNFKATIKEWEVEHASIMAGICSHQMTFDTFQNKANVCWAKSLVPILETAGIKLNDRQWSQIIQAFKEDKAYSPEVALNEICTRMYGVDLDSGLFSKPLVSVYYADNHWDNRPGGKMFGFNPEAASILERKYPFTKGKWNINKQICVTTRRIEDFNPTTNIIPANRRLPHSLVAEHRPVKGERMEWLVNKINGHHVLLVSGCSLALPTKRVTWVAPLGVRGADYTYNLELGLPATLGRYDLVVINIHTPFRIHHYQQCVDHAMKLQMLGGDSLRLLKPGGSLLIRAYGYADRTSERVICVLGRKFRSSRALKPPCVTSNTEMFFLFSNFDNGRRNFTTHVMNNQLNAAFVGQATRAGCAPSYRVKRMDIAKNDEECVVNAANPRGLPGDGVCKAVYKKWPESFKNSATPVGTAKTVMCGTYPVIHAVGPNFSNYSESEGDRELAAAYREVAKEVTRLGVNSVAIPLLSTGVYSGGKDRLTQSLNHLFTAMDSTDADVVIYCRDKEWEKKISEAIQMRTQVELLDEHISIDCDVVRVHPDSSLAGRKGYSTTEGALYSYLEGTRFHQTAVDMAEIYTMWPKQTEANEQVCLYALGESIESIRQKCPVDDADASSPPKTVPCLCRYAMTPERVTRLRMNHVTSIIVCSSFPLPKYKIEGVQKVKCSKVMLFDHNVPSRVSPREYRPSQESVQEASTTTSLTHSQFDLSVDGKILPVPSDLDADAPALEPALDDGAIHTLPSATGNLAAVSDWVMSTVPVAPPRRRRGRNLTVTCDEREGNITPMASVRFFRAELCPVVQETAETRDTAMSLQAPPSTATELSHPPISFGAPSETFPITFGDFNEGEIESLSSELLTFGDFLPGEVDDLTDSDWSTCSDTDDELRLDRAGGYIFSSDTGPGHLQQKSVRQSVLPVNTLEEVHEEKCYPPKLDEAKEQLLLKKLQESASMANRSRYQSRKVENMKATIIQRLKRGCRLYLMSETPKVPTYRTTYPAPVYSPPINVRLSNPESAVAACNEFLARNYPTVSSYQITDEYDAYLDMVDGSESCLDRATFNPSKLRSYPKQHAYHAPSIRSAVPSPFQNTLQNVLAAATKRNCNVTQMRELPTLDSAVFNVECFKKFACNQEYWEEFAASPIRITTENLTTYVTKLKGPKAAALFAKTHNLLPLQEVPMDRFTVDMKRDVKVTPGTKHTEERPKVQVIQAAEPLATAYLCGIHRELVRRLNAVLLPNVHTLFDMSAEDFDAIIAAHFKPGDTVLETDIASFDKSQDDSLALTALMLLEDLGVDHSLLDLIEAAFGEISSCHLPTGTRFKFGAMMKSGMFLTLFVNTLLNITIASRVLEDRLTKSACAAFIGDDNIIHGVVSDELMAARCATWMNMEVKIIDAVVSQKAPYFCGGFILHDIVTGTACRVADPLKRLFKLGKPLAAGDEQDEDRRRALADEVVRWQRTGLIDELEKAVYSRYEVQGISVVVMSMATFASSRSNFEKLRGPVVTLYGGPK
Chain of Cytochrome P450 2D6 (P10635 whole entry): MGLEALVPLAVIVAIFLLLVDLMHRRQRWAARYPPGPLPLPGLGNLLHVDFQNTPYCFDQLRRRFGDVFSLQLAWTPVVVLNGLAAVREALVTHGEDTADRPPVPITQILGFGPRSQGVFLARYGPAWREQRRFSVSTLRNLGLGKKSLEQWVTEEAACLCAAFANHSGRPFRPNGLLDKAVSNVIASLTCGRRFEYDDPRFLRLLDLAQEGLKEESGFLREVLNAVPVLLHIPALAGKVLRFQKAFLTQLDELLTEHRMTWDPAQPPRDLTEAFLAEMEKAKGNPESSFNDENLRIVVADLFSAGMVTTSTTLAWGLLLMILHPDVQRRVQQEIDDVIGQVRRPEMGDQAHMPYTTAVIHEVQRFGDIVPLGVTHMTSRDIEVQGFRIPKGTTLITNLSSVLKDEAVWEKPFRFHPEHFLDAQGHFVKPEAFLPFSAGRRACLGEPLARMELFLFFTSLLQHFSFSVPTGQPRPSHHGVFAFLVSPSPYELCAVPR
Chain of Cytochrome P450 2C9 (P11712 whole entry): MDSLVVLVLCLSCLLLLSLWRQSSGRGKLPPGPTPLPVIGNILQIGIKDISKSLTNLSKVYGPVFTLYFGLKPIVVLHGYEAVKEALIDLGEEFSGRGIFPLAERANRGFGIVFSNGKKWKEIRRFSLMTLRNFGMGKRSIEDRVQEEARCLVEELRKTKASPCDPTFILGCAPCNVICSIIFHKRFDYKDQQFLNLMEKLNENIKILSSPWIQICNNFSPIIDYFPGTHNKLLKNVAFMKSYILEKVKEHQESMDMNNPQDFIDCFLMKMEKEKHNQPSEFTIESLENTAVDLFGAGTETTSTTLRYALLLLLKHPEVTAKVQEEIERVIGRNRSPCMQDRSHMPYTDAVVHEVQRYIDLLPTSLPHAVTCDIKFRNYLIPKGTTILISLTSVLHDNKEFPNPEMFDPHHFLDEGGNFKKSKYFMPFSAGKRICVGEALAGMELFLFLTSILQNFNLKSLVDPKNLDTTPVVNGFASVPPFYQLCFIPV
Chain of Cytochrome P450 2C19 (P33261 whole entry): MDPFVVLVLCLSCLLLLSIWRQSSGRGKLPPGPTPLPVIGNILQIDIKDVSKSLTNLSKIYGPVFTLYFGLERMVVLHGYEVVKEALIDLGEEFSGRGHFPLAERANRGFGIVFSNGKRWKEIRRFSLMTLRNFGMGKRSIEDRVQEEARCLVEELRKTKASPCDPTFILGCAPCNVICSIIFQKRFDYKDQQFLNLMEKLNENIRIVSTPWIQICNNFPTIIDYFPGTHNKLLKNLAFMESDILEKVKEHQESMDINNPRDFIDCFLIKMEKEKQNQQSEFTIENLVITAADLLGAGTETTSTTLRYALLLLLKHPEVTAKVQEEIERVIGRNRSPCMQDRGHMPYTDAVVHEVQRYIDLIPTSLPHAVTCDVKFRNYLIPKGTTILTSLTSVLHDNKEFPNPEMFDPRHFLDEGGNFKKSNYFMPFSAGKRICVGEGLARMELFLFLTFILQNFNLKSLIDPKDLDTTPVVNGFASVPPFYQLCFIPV

## CC1CCNc2c(C(=O)NC/C=C/S(C)(=O)=O)cccc21 (centres undefined)
Chikungunya virus [1]
  EC50: 0.39 µM
[2]
  t1/2: 6 min
[3]
  Vdss: 1.9 L/kg
[4]
  MRT: 3.6 min
[5]
  t1/2: 49.8 min
[6]
  Activity: -1%
Chikungunya virus [7]
  Survival: Active
Chikungunya virus [8]
  Survival: Active
Chikungunya virus [9]
  Activity: 23.7%
Chikungunya virus [10]
  Activity: 5.3
Chikungunya virus [11]
  Activity: 5.8
[12]
  Activity: 28 U/L
[13]
  Activity: 64 U/L
[14]
  Activity: 0.14 mg/dL
[15]
  TDI: Active
[16]
  inhibition: Dose-Dependent Effect
Chikungunya virus [17]
  Activity: Active
[18]
  CLH: < 57.8 µL/min/mg
[19]
  t1/2: > 120 min
[20]
  CLH: 22.7 µL/min/mg
Chikungunya virus [21]
  EC90: 1.6 µM
CYP1A
  IC50: > 100 µM
Cytochrome P450 2C9
  IC50: > 100 µM
Cytochrome P450 2C19
  IC50: > 100 µM
Cytochrome P450 2D6
  IC50: > 100 µM
Cytochrome P450 3A4
  IC50: > 100 µM
Cytochrome P450 3A
  IC50: < 0.03 µM
Kir2.1
  IC50: > 100 µM
[22]
  IC50: > 100 µM
